Measurements: patent publication US4579861A, “Aryloxypropanolamine derivatives, pharmaceutical compositions and adrenegic thereof” (Pierrel S.p.A., priority 1983, dated 1986)
Counter-ions that a name gives are not always drawn. Like-named read-outs stand apart in the source and are kept apart here.

Tests used:
[1] = target: T1, β1 (guinea pig atria) (Cavia porcellus, UniProt H0W3H1); assay: In vitro β-blocking activity, guinea pig atria stimulated with isopropylnoradrenaline (INA); type: cell-based, guinea pig (Hartley albino); conditions: INA 10^-8 M, 32° C.
T1 construct: The atria and the trachea have been suspended respectively in Ringer oxygenated solution; from tissue; host or cells: isolated atria of Hartley albino guinea pigs
Protocol: (§1) Hartley albino guinea pigs of 450 g average weight were used. The atria and the trachea have been suspended respectively in Ringer oxygenated solution at 32° C., and in Krebs carboxygenated solution medicated with pilocarpine, at 37° C.
(§2) After 30' minute stabilization the samples were stimulated with a single submaximal concentration of isopropylnoradrenaline (INA) (10^-8 M for the atria and 10^-7 M for the trachea) in the absence or presence of different antagonist's concentrations.
(§3) The percent inhibitions of the chronotropic and positive inotropic effect (atria) and of relaxation (trachea) were evaluated and the IC50 values were calculated therefrom.

[2] = in vivo; conditions: mouse, iv
Protocol: Charles River male CD1 mice, weighing 25 g were used. The administration volume of the compounds, solubilized in H2 O and exceptionally in dimethylsulfoxide, was 0.02 ml/10 g of body weight.

[3] = target: β2 (guinea pig trachea) (Cavia porcellus, UniProt Q8K4Z4); assay: cell-based; parameters: species or system guinea pig (Hartley albino)
Protocol: as §1, §2, §3

[4] = test system: β1; assay: β-blocking activity on conscious rats, i.v. (inhibition of INA positive chronotropic effect); type: in vivo, rat (male Wistar); conditions: 2 rats each compound
Source text: The arterial pressure (AP) and heart rate (HR) were graphically recorded on a type R. multichannel Beckman poligraph.

[5] = test system: β1 receptors; assay: Inhibition of 3H-DHA (dihydroalprenolol) binding to β1 receptors; conditions: for cardioselectivity degree compared with reference compounds: 3H-DHA binding, in words; for IC50: read-out: IC50 β1 (inhibition of H^3-DHA binding), [3H]dihydroalprenolol binding, β1
[6] = test system: β2 receptors; assay: Inhibition of 3H-DHA (dihydroalprenolol) binding to β2 receptors; conditions: for affinity for the β2 receptors compared with β1 receptors: 3H-DHA binding, in words; for IC50: read-out: IC50 β2 (inhibition of H^3-DHA binding), [3H]dihydroalprenolol binding, β2
[7] = β-Blocking activity in vitro IC50, Atria chronotropism × 10^-7, guinea pig atria, β1, chronotropic effect
[8] = β-Blocking activity in vitro IC50, Atria inotropism × 10^-7, guinea pig atria, β1, positive inotropic effect
[9] = guinea pig atria, β1, chronotropic effect, read-out: β-Blocking activity in vitro IC50, Atria chronotropism × 10^-7
[10] = guinea pig atria, β1, positive inotropic effect, read-out: β-Blocking activity in vitro IC50, Atria inotropism × 10^-7
[11] = guinea pig trachea, β2, relaxation, INA 10^-7 M, 37° C., pilocarpine, read-out: β-Blocking activity in vitro IC50, Trachea β2 × 10^-7
[12] = 3 mg/kg i.v. (Ia-c), could be undervalued by reflex tachycardia
[13] = read-out: β-Blocking activity in vitro IC50, Trachea β2 × 10^-7
[14] = 1 mg/kg i.v., could be undervalued by reflex tachycardia

β2 (guinea pig trachea), sequence (Q8K4Z4 whole entry): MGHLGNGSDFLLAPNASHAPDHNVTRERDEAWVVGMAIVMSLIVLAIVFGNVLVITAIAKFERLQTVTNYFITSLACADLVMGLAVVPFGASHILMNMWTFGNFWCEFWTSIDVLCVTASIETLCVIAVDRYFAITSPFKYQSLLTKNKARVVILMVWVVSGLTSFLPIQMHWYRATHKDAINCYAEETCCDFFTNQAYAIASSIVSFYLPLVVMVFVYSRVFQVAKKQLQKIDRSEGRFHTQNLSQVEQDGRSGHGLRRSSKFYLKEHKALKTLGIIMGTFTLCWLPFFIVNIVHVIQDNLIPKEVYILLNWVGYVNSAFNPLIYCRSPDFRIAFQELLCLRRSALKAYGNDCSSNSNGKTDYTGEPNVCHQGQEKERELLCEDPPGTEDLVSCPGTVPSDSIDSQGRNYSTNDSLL
T1 sequence (H0W3H1 1-470): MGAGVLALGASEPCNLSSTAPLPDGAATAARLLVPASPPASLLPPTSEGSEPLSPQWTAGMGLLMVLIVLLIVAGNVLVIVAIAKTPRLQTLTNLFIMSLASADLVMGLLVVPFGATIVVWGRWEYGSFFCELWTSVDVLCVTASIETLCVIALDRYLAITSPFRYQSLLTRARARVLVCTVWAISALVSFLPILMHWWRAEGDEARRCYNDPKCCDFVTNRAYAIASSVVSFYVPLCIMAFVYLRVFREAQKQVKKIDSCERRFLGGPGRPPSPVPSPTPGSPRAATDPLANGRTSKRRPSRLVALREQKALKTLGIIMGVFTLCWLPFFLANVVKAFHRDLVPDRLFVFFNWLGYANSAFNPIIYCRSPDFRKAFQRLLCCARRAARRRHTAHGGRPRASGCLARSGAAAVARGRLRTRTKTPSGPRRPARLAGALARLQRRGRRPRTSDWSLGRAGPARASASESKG

Row | Structure (SMILES) | LD50 at 168 h [2] [mg/kg] | IC50 [1, 9] [nM] | IC50 [1, 10] [nM] | IC50 [3, 11] [nM] | Vivo inhib. %, conscious rat i.v., chronotropism β1 [4, 14] [%] | further results
1 | CC(C)NCC(O)COc1ccc(CC(N)=O)cc1 (stereo not shown) [Atenolol, atenolol, reference compound] |  |  |  |  |  | IC50 [1, 7]: 1500 nM; IC50 [1, 8]: 1700 nM
2 | O=C1CN(c2ccccc2)C(=O)N1CCNCC(O)COc1ccccc1 (stereo not shown) [Ia, 1-Phenyl-3-{[2-(3-phenoxy-2-hydroxy)propylamino]ethyl}hydantoin hydrochloride] | 96 | 140 | 430 | 6700 |  | Vivo inhib. %, conscious rat i.v., chronotropism β1 [4, 12]: 59%
3 | Cc1cccc(OCC(O)CNCCN2C(=O)CN(c3ccccc3)C2=O)c1 (stereo not shown) [Ib] | 69 | 430 | 940 | 6200 |  | Vivo inhib. %, conscious rat i.v., chronotropism β1 [4, 12]: 50%
4 | N#Cc1ccccc1OC[C@H](O)CNCCN1C(=O)CN(c2ccccc2)C1=O [Ic(R), (R)-(+)-1-Phenyl-3-{2-[3-(2-cyanophenoxy)-2-hydroxypropyl]aminoethyl}hydantoin hydrochloride] |  | 1400 | 3400 |  |  | IC50 [3, 13]: > 100000 nM
5 | N#Cc1ccccc1OC[C@@H](O)CNCCN1C(=O)CN(c2ccccc2)C1=O [Ic(S), (S)-(-)-1-Phenyl-3-{2-[3-(2-cyanophenoxy)-2-hydroxypropyl]aminoethyl}hydantoin hydrochloride] |  | 29 | 60 |  |  | IC50 [3, 13]: 600 nM
6 | N#Cc1ccccc1OCC(O)CNCCN1C(=O)CN(c2ccccc2)C1=O (stereo not shown) [Ic] | 99 | 120 | 90 | 2000 |  | cardioselectivity degree compared with reference compounds [5]: remarkably higher cardioselectivity degree than that of the reference compounds; IC50 [5]: 6.7 nM; affinity for the β2 receptors compared with β1 receptors [6]: remarkably lower than the one shown for β1 receptors; IC50 [6]: 9300 nM; Vivo inhib. %, conscious rat i.v., chronotropism β1 [4, 12]: 67%
7 | O=C1CN(c2ccc(Cl)cc2)C(=O)N1CCNCC(O)COc1ccccc1 (stereo not shown) [Id] | 45 | 770 | 1200 | > 10000 | 18 | 
8 | Cc1cccc(OCC(O)CNCCN2C(=O)CN(c3ccc(Cl)cc3)C2=O)c1 (stereo not shown) [Ie] | 25 | > 10000 | > 10000 | > 10000 | 19 | 
9 | N#Cc1ccccc1OCC(O)CNCCN1C(=O)CN(c2ccc(Cl)cc2)C1=O (stereo not shown) [If] | 70 | 210 | 270 | 6000 | 68 | 
10 | COc1ccc(N2CC(=O)N(CCNCC(O)COc3ccccc3)C2=O)cc1OC (stereo not shown) [Ig] | 126 | 230 | 210 | 1500 | 53 | 
11 | COc1ccc(N2CC(=O)N(CCNCC(O)COc3cccc(C)c3)C2=O)cc1OC (stereo not shown) [Ih] | 111 | 460 | 890 | 1100 | 58 | 
12 | COc1ccc(N2CC(=O)N(CCNCC(O)COc3ccccc3C#N)C2=O)cc1OC (stereo not shown) [Ii] | 137 | 82 | 190 | 430 | 70 | cardioselectivity degree compared with reference compounds [5]: remarkably higher cardioselectivity degree than that of the reference compounds; IC50 [5]: 9.2 nM; affinity for the β2 receptors compared with β1 receptors [6]: remarkably lower than the one shown for β1 receptors; IC50 [6]: 400 nM
13 | COc1ccc(N2CC(=O)N(CCNCC(O)COc3ccccc3C#N)C2=O)cc1.Cl (stereo not shown) [Il, 1-(4-Methoxyphenyl)-3-{2-[3-(2-cyanophenoxy)-2-hydroxypropyl]aminoethyl}hydantoin hydrochloride] | 135 | 45 | 96 |  |  | IC50 [3, 13]: 360 nM
14 | Cl.N#Cc1ccccc1OCC(O)CNCCN1C(=O)CN(c2ccc3c(c2)OCO3)C1=O (stereo not shown) [Im, 1-(3,4-Methylendioxyphenyl)-3-{2-[3-(2-cyanophenoxy)-2-hydroxypropyl]aminoethyl}hydantoin hydrochloride] | 132 | 41 | 63 |  |  | IC50 [3, 13]: 780 nM
15 | COc1cccc(N2CC(=O)N(CCNCC(O)COc3ccccc3C#N)C2=O)c1 (stereo not shown) [In, 1-(3-Methoxyphenyl)-3-{2-[3-(2-cyanophenoxy)-2-hydroxypropyl]-aminoethyl}hydantoin hydrochloride] | 120 | 76 | 130 | 640 |  | 
16 | Cc1ccccc1OCC(O)CNCCN1C(=O)CN(c2ccccc2)C1=O (stereo not shown) [Io] | 60 | 115 | 150 | 1600 |  | 
17 | O=C1CN(c2ccccc2)C(=O)N1CCNCC(O)COc1ccccc1Cl (stereo not shown) [Ip] | 80 | 54 | 115 | 600 |  | 
18 | CC(CCc1ccccc1)NCC(O)c1ccc(O)c(C(N)=O)c1 (stereo not shown) [Labetalol, labetalol, reference compound] |  |  |  |  | 82 | IC50 [1, 7]: 240 nM; IC50 [1, 8]: 210 nM; IC50 [3]: 1100 nM
19 | COCCc1ccc(OCC(O)CNC(C)C)cc1 (stereo not shown) [Metoprolol, metoprolol, reference compound] | 103 |  |  |  | 60 | 
20 | CC(C)NCC(O)COc1cccc2ccccc12 (stereo not shown) [Propranolol, propranolol, reference compound] |  |  |  |  |  | Vivo inhib. %, conscious rat i.v., chronotropism β1 ([4]; 0.1 mg/kg i.v. (propranolol)): 73%
